Reference: US12723063B2, “GIPR-agonist compounds” (Eli Lilly and Company, priority 2019, dated 2026)
*1 amine or outer side, *2 acyl side, *3 side chain or, on linkers, in order; H or OH if unused. Where a SMILES comes first, the peptide text is derived from it. Side-chain parts run from the residue outwards. [ ]: non-standard residue; d: D form. The star is where a group is joined. C20 diacid = O=C(O)CCCCCCCCCCCCCCCCCCC(=O)*; C18 diacid = O=C(O)CCCCCCCCCCCCCCCCC(=O)*; αMePhe(2-F) = C[C@](N)(Cc1ccccc1F)C(=O)O; γGlu = O=C(O)[C@H](CCC(=O)[*:2])N[*:1]; 4Pal = N[C@@H](Cc1ccncc1)C(=O)O; αMeL = CC(C)C[C@](C)(N)C(=O)O; Iva = CC[C@](C)(N)C(=O)O; AEEA = NCCOCCOCC(=O)O; Aib = CC(C)(N)C(=O)O

Biological target: T1, human GLP-1R (Homo sapiens, UniProt P43220)
T1 construct: expressed in transfected cells; crude membranes
Assay: [125I]-GLP-1 binding, SPA with WGA beads, 0.1% bacitracin
Settings: geometric mean, read-out: hGLP1R Ki
In short: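 Binding buffer was 25 mM HEPES pH 7.4 with 2.5 mM CaCl2, 1 mM MgCl2, 0.1% (w/v) bacitracin, 0.003% Tween-20 and EDTA-free protease inhibitors. Four-parameter regression gave IC50, converted to Ki (geometric mean, SEM, n independent days).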

T1 sequence (P43220 24-463): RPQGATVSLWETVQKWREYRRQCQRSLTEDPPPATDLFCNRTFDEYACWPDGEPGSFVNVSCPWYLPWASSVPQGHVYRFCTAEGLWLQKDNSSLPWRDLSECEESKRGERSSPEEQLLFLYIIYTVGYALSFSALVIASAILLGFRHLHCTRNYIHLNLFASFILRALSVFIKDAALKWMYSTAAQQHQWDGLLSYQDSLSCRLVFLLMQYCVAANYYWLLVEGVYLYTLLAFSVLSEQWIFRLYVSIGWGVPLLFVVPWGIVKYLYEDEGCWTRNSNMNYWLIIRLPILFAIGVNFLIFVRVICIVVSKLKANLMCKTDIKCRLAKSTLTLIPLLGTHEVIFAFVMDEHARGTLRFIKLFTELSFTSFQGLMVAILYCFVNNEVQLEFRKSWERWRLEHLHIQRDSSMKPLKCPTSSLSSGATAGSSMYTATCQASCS

SMILES	Ki [nM]
CC[C@H](C)[C@H](NC(=O)[C@H](CO)NC(=O)[C@H](Cc1ccc(O)cc1)NC(=O)[C@H](CC(=O)O)NC(=O)[C@H](CO)NC(=O)[C@@H](NC(=O)[C@](C)(CC)NC(=O)[C@@H](NC(=O)CNC(=O)[C@H](CCC(=O)O)NC(=O)C(C)(C)NC(=O)[C@@H](N)Cc1ccc(O)cc1)[C@@H](C)O)[C@@H](C)CC)C(=O)N[C@@](C)(CC(C)C)C(=O)N[C@@H](CC(C)C)C(=O)N[C@@H](CC(=O)O)C(=O)N[C@@H](CCCCN)C(=O)N[C@@H](CCCCNC(=O)COCCOCCNC(=O)COCCOCCNC(=O)CC[C@H](NC(=O)CCCCCCCCCCCCCCCCCCC(=O)O)C(=O)O)C(=O)N[C@@H](Cc1c[nH]cn1)C(=O)N[C@@H](CCC(N)=O)C(=O)NC(C)(C)C(=O)N[C@@H](CC(=O)O)C(=O)N[C@@H](Cc1ccccc1)C(=O)N[C@H](C(=O)N[C@@H](CCC(=O)O)C(=O)N[C@@H](Cc1ccncc1)C(=O)N[C@@H](CC(C)C)C(=O)N[C@@H](CC(C)C)C(=O)N[C@@H](CCC(=O)O)C(=O)N[C@H](C(=O)NCC(=O)N1CCC[C@H]1C(=O)N[C@@H](CO)C(=O)N[C@@H](CO)C(=O)NCC(=O)N[C@@H](C)C(=O)N1CCC[C@H]1C(=O)N1CCC[C@H]1C(=O)N1CCC[C@H]1C(=O)N[C@@H](CO)C(N)=O)[C@@H](C)O)C(C)C [Example 75] (H-Y[Aib]EGT[Iva]ISDYSI[αMeL]LDKK([AEEA-AEEA-γGlu-C20 diacid])HQ[Aib]DFVE[4Pal]LLETGPSSGAPPPS-NH2)	> 902
CC[C@H](C)[C@H](NC(=O)[C@H](CCCCN)NC(=O)[C@H](CC(=O)O)NC(=O)[C@H](CC(C)C)NC(=O)[C@](C)(CC(C)C)NC(=O)[C@@H](NC(=O)[C@H](CO)NC(=O)[C@H](Cc1ccc(O)cc1)NC(=O)[C@H](CC(=O)O)NC(=O)[C@H](CO)NC(=O)[C@@H](NC(=O)[C@H](Cc1ccccc1)NC(=O)[C@@H](NC(=O)CNC(=O)[C@H](CCC(=O)O)NC(=O)C(C)(C)NC(=O)[C@@H](N)Cc1ccc(O)cc1)[C@@H](C)O)[C@@H](C)CC)[C@@H](C)CC)C(=O)N[C@@H](CCCNC(=N)N)C(=O)N[C@@H](CCC(N)=O)C(=O)NC(C)(C)C(=O)N[C@@H](CC(=O)O)C(=O)N[C@@H](Cc1ccccc1)C(=O)N[C@H](C(=O)N[C@@H](CCC(=O)O)C(=O)N[C@@H](Cc1ccc(O)cc1)C(=O)N[C@@H](CCCCNC(=O)COCCOCCNC(=O)COCCOCCNC(=O)CC[C@H](NC(=O)CCCCCCCCCCCCCCCCCCC(=O)O)C(=O)O)C(=O)N[C@@H](CC(C)C)C(=O)N[C@@H](CCC(=O)O)C(=O)NCC(=O)NCC(=O)N1CCC[C@H]1C(=O)N[C@@H](CO)C(=O)N[C@@H](CO)C(=O)NCC(=O)N[C@@H](C)C(=O)N1CCC[C@H]1C(=O)N1CCC[C@H]1C(=O)N1CCC[C@H]1C(=O)N[C@@H](CO)C(N)=O)C(C)C [Example 115] (H-Y[Aib]EGTFISDYSI[αMeL]LDKIRQ[Aib]DFVEYK([AEEA-AEEA-γGlu-C20 diacid])LEGGPSSGAPPPS-NH2)	> 912
CC[C@H](C)[C@H](NC(=O)[C@H](CO)NC(=O)[C@H](Cc1ccc(O)cc1)NC(=O)[C@H](CC(=O)O)NC(=O)[C@H](CO)NC(=O)[C@@H](NC(=O)[C@H](Cc1ccccc1)NC(=O)[C@@H](NC(=O)CNC(=O)[C@H](CCC(=O)O)NC(=O)[C@@H](C)NC(=O)[C@@H](N)Cc1ccc(O)cc1)[C@@H](C)O)[C@@H](C)CC)C(=O)N[C@@H](CC(C)C)C(=O)N[C@@H](CC(C)C)C(=O)N[C@@H](CC(=O)O)C(=O)N[C@@H](CCCCN)C(=O)N[C@@H](CCCCNC(=O)COCCOCCNC(=O)COCCOCCNC(=O)CC[C@H](NC(=O)CCCCCCCCCCCCCCCCC(=O)O)C(=O)O)C(=O)N[C@@H](C)C(=O)N[C@@H](CCC(N)=O)C(=O)NC(C)(C)C(=O)N[C@@H](CCC(=O)O)C(=O)N[C@@H](Cc1ccccc1)C(=O)N[C@H](C(=O)N[C@@H](CCC(=O)O)C(=O)N[C@@H](Cc1c[nH]c2ccccc12)C(=O)N[C@@H](CC(C)C)C(=O)N[C@@H](CC(C)C)C(=O)N[C@@H](C)C(=O)NCC(=O)NCC(=O)N1CCC[C@H]1C(=O)N[C@@H](CO)C(=O)N[C@@H](CO)C(=O)NCC(=O)N[C@@H](C)C(=O)N1CCC[C@H]1C(=O)N1CCC[C@H]1C(=O)N1CCC[C@H]1C(=O)N[C@@H](CO)C(N)=O)C(C)C [Example 29] (H-Y[dA]EGTFISDYSILLDKK([AEEA-AEEA-γGlu-C18 diacid])AQ[Aib]EFVEWLLAGGPSSGAPPPS-NH2)	22.7
CC[C@H](C)[C@H](NC(=O)[C@H](CO)NC(=O)[C@H](Cc1ccc(O)cc1)NC(=O)[C@H](CC(=O)O)NC(=O)[C@H](CO)NC(=O)[C@@H](NC(=O)[C@H](Cc1ccccc1)NC(=O)[C@@H](NC(=O)CNC(=O)[C@H](CCC(=O)O)NC(=O)C(C)(C)NC(=O)[C@@H](N)Cc1ccc(O)cc1)[C@@H](C)O)[C@@H](C)CC)C(=O)N[C@@H](CC(C)C)C(=O)N[C@@H](CC(C)C)C(=O)N[C@@H](CC(=O)O)C(=O)N[C@@H](CCCCN)C(=O)N[C@@H](CCCCNC(=O)COCCOCCNC(=O)COCCOCCNC(=O)CC[C@H](NC(=O)CCCCCCCCCCCCCCCCC(=O)O)C(=O)O)C(=O)N[C@@H](Cc1c[nH]cn1)C(=O)N[C@@H](CCC(N)=O)C(=O)NC(C)(C)C(=O)N[C@@H](CC(=O)O)C(=O)N[C@@H](Cc1ccccc1)C(=O)N[C@H](C(=O)N[C@@H](CC(N)=O)C(=O)N[C@@H](Cc1ccc(O)cc1)C(=O)N[C@@H](CC(C)C)C(=O)N[C@@H](CC(C)C)C(=O)N[C@@H](C)C(=O)N[C@@H](C)C(=O)NCC(=O)N1CCC[C@H]1C(=O)N[C@@H](CO)C(=O)N[C@@H](CO)C(=O)NCC(=O)N[C@@H](C)C(=O)N1CCC[C@H]1C(=O)N1CCC[C@H]1C(=O)N1CCC[C@H]1C(=O)N[C@@H](CO)C(N)=O)C(C)C [Example 31] (H-Y[Aib]EGTFISDYSILLDKK([AEEA-AEEA-γGlu-C18 diacid])HQ[Aib]DFVNYLLAAGPSSGAPPPS-NH2)	266
CC[C@H](C)[C@H](NC(=O)[C@H](CCCN)NC(=O)[C@H](CC(=O)O)NC(=O)[C@H](CC(C)C)NC(=O)[C@](C)(CC(C)C)NC(=O)[C@@H](NC(=O)[C@H](CO)NC(=O)[C@H](Cc1ccc(O)cc1)NC(=O)[C@H](CC(=O)O)NC(=O)[C@H](CO)NC(=O)[C@@H](NC(=O)[C@H](Cc1ccccc1)NC(=O)[C@@H](NC(=O)CNC(=O)[C@H](CCC(=O)O)NC(=O)C(C)(C)NC(=O)[C@@H](N)Cc1ccc(O)cc1)[C@@H](C)O)[C@@H](C)CC)[C@@H](C)CC)C(=O)N[C@@H](Cc1c[nH]cn1)C(=O)N[C@@H](CCC(N)=O)C(=O)NC(C)(C)C(=O)N[C@@H](CC(=O)O)C(=O)N[C@@H](Cc1ccccc1)C(=O)N[C@H](C(=O)N[C@H](CCC(=O)O)C(=O)N[C@@H](Cc1ccc(O)cc1)C(=O)N[C@@H](CCCCNC(=O)COCCOCCNC(=O)COCCOCCNC(=O)CC[C@H](NC(=O)CCCCCCCCCCCCCCCCCCC(=O)O)C(=O)O)C(=O)N[C@@H](CC(C)C)C(=O)N[C@@H](CCC(=O)O)C(=O)NCC(=O)NCC(=O)N1CCC[C@H]1C(=O)N[C@@H](CO)C(=O)N[C@@H](CO)C(=O)NCC(=O)N[C@@H](C)C(=O)N1CCC[C@H]1C(=O)N1CCC[C@H]1C(=O)N1CCC[C@H]1C(=O)N[C@@H](CO)C(N)=O)C(C)C [Example 101]	> 913
CC[C@H](C)[C@H](NC(=O)[C@H](Cc1ccccc1)NC(=O)[C@@H](NC(=O)CNC(=O)[C@H](CCC(=O)O)NC(=O)C(C)(C)NC(=O)[C@@H](N)Cc1ccc(O)cc1)[C@@H](C)O)C(=O)N[C@@H](CO)C(=O)N[C@@H](CC(=O)O)C(=O)N[C@@H](Cc1ccc(O)cc1)C(=O)N[C@@H](CO)C(=O)N[C@H](C(=O)NC(C)(C)C(=O)N[C@@H](CC(C)C)C(=O)N[C@@H](CC(=O)O)C(=O)N[C@@H](CCCCN)C(=O)N[C@@H](CCCCNC(=O)COCCOCCNC(=O)COCCOCCNC(=O)CC[C@H](NC(=O)CCCCCCCCCCCCCCCCC(=O)O)C(=O)O)C(=O)N[C@@H](Cc1c[nH]cn1)C(=O)N[C@@H](CCC(N)=O)C(=O)NC(C)(C)C(=O)N[C@@H](CC(=O)O)C(=O)N[C@@H](Cc1ccccc1)C(=O)N[C@H](C(=O)N[C@@H](CCC(=O)O)C(=O)N[C@@H](Cc1ccncc1)C(=O)N[C@@H](CC(C)C)C(=O)N[C@@H](CC(C)C)C(=O)N[C@@H](C)C(=O)NCC(=O)NCC(=O)N1CCC[C@H]1C(=O)N[C@@H](CO)C(=O)N[C@@H](CO)C(=O)NCC(=O)N[C@@H](C)C(=O)N1CCC[C@H]1C(=O)N1CCC[C@H]1C(=O)N1CCC[C@H]1C(=O)N[C@@H](CO)C(N)=O)C(C)C)[C@@H](C)CC [Example 24]	729
CC[C@H](C)[C@H](NC(=O)[C@H](CO)NC(=O)[C@H](Cc1ccc(O)cc1)NC(=O)[C@H](CC(=O)O)NC(=O)[C@H](CO)NC(=O)[C@@H](NC(=O)[C@](C)(Cc1ccccc1F)NC(=O)[C@@H](NC(=O)CNC(=O)[C@H](CCC(=O)O)NC(=O)C(C)(C)NC(=O)[C@@H](N)Cc1ccc(O)cc1)[C@@H](C)O)[C@@H](C)CC)C(=O)N[C@@H](CC(C)C)C(=O)N[C@@H](CC(C)C)C(=O)N[C@@H](CC(=O)O)C(=O)N[C@@H](CCCCN)C(=O)N[C@H](C(=O)N[C@@H](Cc1c[nH]cn1)C(=O)N[C@@H](CCC(N)=O)C(=O)NC(C)(C)C(=O)N[C@@H](CC(=O)O)C(=O)N[C@@H](Cc1ccccc1)C(=O)N[C@H](C(=O)N[C@@H](CCC(=O)O)C(=O)N[C@@H](Cc1ccncc1)C(=O)N[C@@H](CCCCNC(=O)COCCOCCNC(=O)COCCOCCNC(=O)CC[C@H](NC(=O)CCCCCCCCCCCCCCCCCCC(=O)O)C(=O)O)C(=O)N[C@@H](CC(C)C)C(=O)N[C@@H](CCC(=O)O)C(=O)N[C@@H](CCC(N)=O)C(=O)NCC(=O)N1CCC[C@H]1C(=O)N[C@@H](CO)C(=O)N[C@@H](CO)C(=O)NCC(=O)N[C@@H](C)C(=O)N1CCC[C@H]1C(=O)N1CCC[C@H]1C(=O)N1CCC[C@H]1C(=O)N[C@@H](CO)C(N)=O)C(C)C)[C@@H](C)CC [Example 121] (H-Y[Aib]EGT[αMePhe(2-F)]ISDYSILLDKIHQ[Aib]DFVE[4Pal]K([AEEA-AEEA-γGlu-C20 diacid])LEQGPSSGAPPPS-NH2)	> 912
